Data from BindingDB's records for patent US20240398793 (Celltaxis, 2024).
pIC50: −log10 of the molar value.

The molecules below were run against T1, Leukotriene A-4 hydrolase (Homo sapiens, UniProt P09960) (assay: Homogenous Time Resolved Fluorescence Assay).
T1 sequence (P09960 whole entry): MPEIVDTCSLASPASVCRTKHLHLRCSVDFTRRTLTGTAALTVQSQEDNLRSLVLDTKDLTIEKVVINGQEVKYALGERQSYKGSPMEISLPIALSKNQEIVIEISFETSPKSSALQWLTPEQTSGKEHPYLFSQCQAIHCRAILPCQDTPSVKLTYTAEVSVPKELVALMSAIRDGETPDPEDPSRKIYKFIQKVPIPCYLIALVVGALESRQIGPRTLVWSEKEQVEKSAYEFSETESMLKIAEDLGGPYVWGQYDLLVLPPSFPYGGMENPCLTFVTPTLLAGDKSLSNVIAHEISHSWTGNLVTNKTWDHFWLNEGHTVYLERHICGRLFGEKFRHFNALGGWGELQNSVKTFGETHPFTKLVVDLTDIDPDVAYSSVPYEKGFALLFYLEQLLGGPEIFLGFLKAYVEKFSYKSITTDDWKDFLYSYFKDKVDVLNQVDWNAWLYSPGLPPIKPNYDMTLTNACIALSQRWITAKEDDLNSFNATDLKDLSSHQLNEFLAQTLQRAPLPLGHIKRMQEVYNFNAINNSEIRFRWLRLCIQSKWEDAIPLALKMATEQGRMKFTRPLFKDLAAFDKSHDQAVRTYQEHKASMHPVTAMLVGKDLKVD
Source text: The hydrolase-homogeneous time resolved fluorescence assay is a two-step assay that measures the hydrolysis of LTA4 to LTB4 by analyzing the amount of LTB4 produced. The first step involves the enzymatic conversion of LTA4 to LTB4 and the second step involves the quantification of the LTB4 formed with a homogeneous time resolved fluorescence assay.

SMILES | pIC50
COc1cc(O)cc(CCc2cccc(O)c2)c1 [Batatasin III (4)] | 5.77
O=c1c(-c2ccc(O)cc2)coc2cc(O)ccc12 [US20240398793, Compound 11] | 4.82
O=c1c(-c2ccccc2)coc2cc(O)ccc12 [US20240398793, Compound 13] | 4.32
CC(=O)Oc1ccc(/C=C/c2cc(OC(C)=O)cc(OC(C)=O)c2)cc1 [US20240398793, Compound 4] | 4.41
COc1cc(O)cc(/C=C/c2ccc(O)cc2)c1 [US20240398793, Compound 5] | 5.41
CCOc1cc(O)cc(CCc2ccc(O)cc2)c1 [US20240398793, Compound 7] | 5.49

The remaining molecules from weak to strong by pIC50, led by results:

pIC50 | SMILES
4.47 | O=C(Cc1ccc(O)cc1)c1ccc(O)cc1O [US20240398793, Compound 10]
5.19 | COc1cc(O)cc(CCc2ccc(O)cc2)c1 [US20240398793, Compound 6]
5.92 | Cc1ccc2c(=O)c(-c3ccc(O)cc3)coc2c1O [US20240398793, Compound 15]
6.30 | COc1cc(O)cc(CCc2ccccc2O)c1 [US20240398793, Compound 9]
